According to the supplement of paper PMC13380429:

What was measured:
Details in all cases: 72 h
[1] = test system: Caco-2; experiment: cell viability relative to DMSO; higher = less toxic
[2] = test system: Calu-3; experiment: as above
[3] = test system: HepG2; experiment: as above
[4] = test system: U2OS; experiment: as above
[5] = test system: Vero E6; experiment: as above
[6] = test system: Calu-3; experiment: relative viability EC50 (midpoint between 100% and the lowest measured viability); higher = less toxic
[7] = test system: U2OS; experiment: as above
[8] = test system: Vero E6; experiment: as above
[9] = test system: Caco-2; experiment: drug sensitivity score (DSS) for viability; higher = more toxic; extreme values may be limits of the assay
[10] = test system: Calu-3; experiment: as above
[11] = test system: HepG2; experiment: as above
[12] = test system: U2OS; experiment: as above
[13] = test system: Vero E6; experiment: as above
[14] = test system: Caco-2; experiment: relative viability EC50 (midpoint between 100% and the lowest measured viability); higher = less toxic
[15] = test system: HepG2; experiment: as above

| Compound | cell viability ([1]; 1 nM) [%] | cell viability ([1]; 10 nM) [%] | cell viability ([1]; 100 nM) [%] | cell viability ([1]; 1000 nM) [%] | cell viability ([1]; 10000 nM) [%] | cell viability ([2]; 1 nM) [%] | cell viability ([2]; 10 nM) [%] | cell viability ([2]; 100 nM) [%] | cell viability ([2]; 1000 nM) [%] | cell viability ([2]; 10000 nM) [%] | cell viability ([3]; 1 nM) [%] | cell viability ([3]; 10 nM) [%] | cell viability ([3]; 100 nM) [%] | cell viability ([3]; 1000 nM) [%] | cell viability ([3]; 10000 nM) [%] | cell viability ([4]; 1 nM) [%] | cell viability ([4]; 10 nM) [%] | cell viability ([4]; 100 nM) [%] | cell viability ([4]; 1000 nM) [%] | cell viability ([4]; 10000 nM) [%] | cell viability ([5]; 1 nM) [%] | cell viability ([5]; 10 nM) [%] | cell viability ([5]; 100 nM) [%] | cell viability ([5]; 1000 nM) [%] | cell viability ([5]; 10000 nM) [%] | relative viability EC50 [6] [µM] | relative viability EC50 [7] [µM] | relative viability EC50 [8] [µM] | drug sensitivity score [9] | drug sensitivity score [10] | drug sensitivity score [11] | drug sensitivity score [12] | drug sensitivity score [13] | relative viability EC50 [14] [µM] | relative viability EC50 [15] [µM] |
| --- | --- | --- | --- | --- | --- | --- | --- | --- | --- | --- | --- | --- | --- | --- | --- | --- | --- | --- | --- | --- | --- | --- | --- | --- | --- | --- | --- | --- | --- | --- | --- | --- | --- | --- | --- |
| CCc1nc(-c2cccc(C)c2)c(-c2ccnc(NC(=O)c3ccccc3)c2)s1 [TAK-715] | 97.5 | 102 | 92 | 78.1 | 65.6 | 90.5 | 101 | 91.8 | 93.7 | 78.2 | 93 | 94.6 | 94.6 | 94.6 | 73.5 | 100 | 103 | 98.3 | 93.6 | 85.5 | 93.5 | 102 | 94.8 | 90.6 | 82.2 | > 10 | > 10 | > 10 | 4.3 | 1 | 1.8 | 0.4 | 0.8 | – | – |
| Cc1nnc(-c2ccc3occ(-c4ccc([S+](C)[O-])cc4)c3c2)o1 (stereo not drawn) [TCS2002] | 103 | 96.7 | 98.5 | 108 | 108 | – | – | – | – | – | 94 | 97.2 | 99.3 | 93 | 112 | 102 | 103 | 101 | 99.3 | 98.5 | 96.1 | 95.9 | 99.1 | 90.6 | 101 | – | > 10 | > 10 | 0 | – | 0 | 0 | 0 | > 10 | > 10 |
| O=C(O[C@H]1C[N+]2(CCCOc3ccccc3)CCC1CC2)C(O)(c1cccs1)c1cccs1 [aclidinium] | 105 | 87.8 | 99.6 | 94.3 | 104 | – | – | – | – | – | 93.5 | 98.9 | 91.8 | 101 | 92.9 | 98.4 | 95.9 | 97.1 | 97.2 | 99.1 | 103 | 95.5 | 101 | 96.6 | 98.7 | – | > 10 | > 10 | 0 | – | 0 | 0 | 0 | > 10 | > 10 |
| NC(=O)NC1NC(=O)NC1=O (stereo not drawn) [allantoin] | 102 | 109 | 96.3 | 100 | 93.5 | – | – | – | – | – | 114 | 107 | 104 | 99.9 | 95.5 | 99 | 102 | 99.5 | 103 | 97.8 | 108 | 98.5 | 103 | 102 | 102 | – | > 10 | > 10 | 0 | – | 0 | 0 | 0 | > 10 | > 10 |
| O=C(O)CN1C(=O)c2cccc3cccc(c23)C1=O [alrestatin] | 99 | 95.2 | 101 | 96.7 | 107 | – | – | – | – | – | 95.4 | 102 | 90.7 | 98 | 101 | 98.9 | 96.6 | 96.1 | 102 | 105 | 94.8 | 102 | 105 | 96.6 | 101 | – | > 10 | > 10 | 0 | – | 0 | 0 | 0 | > 10 | > 10 |
| OC[C@H]1O[C@@H](Oc2ccc(O)cc2)[C@H](O)[C@@H](O)[C@@H]1O [arbutin] | 95.7 | 101 | 105 | 96 | 103 | – | – | – | – | – | 99.2 | 109 | 98.6 | 105 | 103 | 97.9 | 102 | 102 | 97.5 | 108 | 98.6 | 98 | 91.6 | 94.6 | 94.5 | – | > 10 | > 10 | 0 | – | 0 | 0 | 0 | > 10 | > 10 |
